Consider three molecules from publication PMC10379611 (International Journal of Molecular Sciences, 2023).

In one data set the target is T1, OATP2B1 (Homo sapiens, UniProt O94956).
T1 construct: expressed in transfected cells; host or cells: A431
T1 sequence (O94956 1-709): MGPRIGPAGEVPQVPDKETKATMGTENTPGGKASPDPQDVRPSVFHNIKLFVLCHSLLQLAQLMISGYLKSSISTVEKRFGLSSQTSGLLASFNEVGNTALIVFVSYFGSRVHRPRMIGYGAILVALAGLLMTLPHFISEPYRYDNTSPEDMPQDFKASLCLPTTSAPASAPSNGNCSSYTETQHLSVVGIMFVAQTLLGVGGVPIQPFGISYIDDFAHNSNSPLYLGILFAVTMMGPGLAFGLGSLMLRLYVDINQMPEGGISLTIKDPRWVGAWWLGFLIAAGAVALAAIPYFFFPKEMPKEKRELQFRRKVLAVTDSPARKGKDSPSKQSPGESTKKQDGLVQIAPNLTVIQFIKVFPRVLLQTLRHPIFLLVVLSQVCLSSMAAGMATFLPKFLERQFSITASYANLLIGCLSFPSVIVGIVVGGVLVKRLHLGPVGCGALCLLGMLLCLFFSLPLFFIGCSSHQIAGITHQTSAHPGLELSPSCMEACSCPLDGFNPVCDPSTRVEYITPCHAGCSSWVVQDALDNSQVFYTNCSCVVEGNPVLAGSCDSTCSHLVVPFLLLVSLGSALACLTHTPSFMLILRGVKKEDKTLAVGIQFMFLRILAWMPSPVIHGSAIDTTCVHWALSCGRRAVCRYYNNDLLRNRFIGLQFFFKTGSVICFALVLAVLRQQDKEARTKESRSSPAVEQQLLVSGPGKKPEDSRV
The experiment in a line: OATP2B1 uptake assay (pyranine) in overexpressing A431 cells. Type of data set: cell-based. As to conditions: for IC50: pyranine substrate, A431 cells, pH 5.5, read-out: estimated IC50, OATP2B1. On the procedure: To study the function of OATPs, we used A431 cells overexpressing OATP1A2, OATP1B1, OATP1B3, or OATP2B1 and mock-transfected A431 cells, generated as previously described, as controls. […] Briefly, OATP-overexpressing A431 cells and mock-transfected A431 cells were seeded on 96-well plates (8 × 10^4 cells/well).

The next data set has as its target T2, OATP1B1 (Homo sapiens, UniProt Q9Y6L6).
T2 sequence (Q9Y6L6 1-691): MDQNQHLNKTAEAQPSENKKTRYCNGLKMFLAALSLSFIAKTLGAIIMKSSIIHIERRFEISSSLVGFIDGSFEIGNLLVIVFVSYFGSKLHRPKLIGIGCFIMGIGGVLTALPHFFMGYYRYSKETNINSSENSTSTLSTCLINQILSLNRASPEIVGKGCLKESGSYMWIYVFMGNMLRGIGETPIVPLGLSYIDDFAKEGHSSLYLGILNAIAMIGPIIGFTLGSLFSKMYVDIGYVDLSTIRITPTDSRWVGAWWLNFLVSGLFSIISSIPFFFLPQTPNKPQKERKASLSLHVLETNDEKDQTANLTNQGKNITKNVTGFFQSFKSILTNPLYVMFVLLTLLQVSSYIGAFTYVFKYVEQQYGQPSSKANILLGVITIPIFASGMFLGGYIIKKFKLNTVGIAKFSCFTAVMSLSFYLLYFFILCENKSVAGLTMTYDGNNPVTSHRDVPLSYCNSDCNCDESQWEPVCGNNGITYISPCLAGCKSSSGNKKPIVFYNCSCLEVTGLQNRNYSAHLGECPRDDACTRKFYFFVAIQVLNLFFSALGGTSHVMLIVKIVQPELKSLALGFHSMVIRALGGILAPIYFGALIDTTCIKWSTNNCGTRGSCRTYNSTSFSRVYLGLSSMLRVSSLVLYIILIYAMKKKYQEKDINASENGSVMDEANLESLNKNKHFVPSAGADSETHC
The experiment in a line: OATP1B1 uptake assay (pyranine) in overexpressing A431 cells.

For a further data set, the target named is T3, ENT1 (Homo sapiens, UniProt Q99808).
T3 construct: expressed in transfected cells; host or cells: MDCKII (lentiviral transduction)
T3 sequence (Q99808 1-456): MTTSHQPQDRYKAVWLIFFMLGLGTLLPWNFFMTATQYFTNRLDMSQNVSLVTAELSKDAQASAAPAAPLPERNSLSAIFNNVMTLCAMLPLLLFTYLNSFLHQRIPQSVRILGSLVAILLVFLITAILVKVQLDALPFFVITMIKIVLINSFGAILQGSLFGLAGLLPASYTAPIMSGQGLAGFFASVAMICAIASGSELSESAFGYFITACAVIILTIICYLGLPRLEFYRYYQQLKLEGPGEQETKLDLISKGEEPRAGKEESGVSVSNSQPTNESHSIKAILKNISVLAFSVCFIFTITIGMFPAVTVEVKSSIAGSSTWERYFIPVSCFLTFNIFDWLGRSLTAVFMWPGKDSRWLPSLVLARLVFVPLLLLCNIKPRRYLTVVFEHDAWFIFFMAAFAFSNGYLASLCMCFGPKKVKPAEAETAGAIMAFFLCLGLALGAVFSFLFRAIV
The experiment in a line: ENT1-mediated uridine uptake in ENT1-MDCKII cells. Type of data set: cell-based. As to the method: ENT and CNT transporter interactions were investigated in transporter-overexpressing cell lines. Madin-Darby Canine Kidney II (MDCKII) cell lines overexpressing the human uptake transporters CNT1, CNT2, ENT1, and ENT2 were generated via lentiviral transduction. Cell cultures were maintained in Dulbecco’s modified Eagle’s medium (DMEM) and 4500 mg/L of glucose supplemented with GlutaMax^TM, 10% v/v fetal bovine serum (FBS), 100 units/mL penicillin, and 100 µg/mL streptomycin (all from Gibco/ThermoFisher, Waltham, MA, USA) at 37 °C in 5% CO2 at 95% humidity. For uptake inhibition assays, transporter-expressing cells and mock-transduced control cells were seeded on 96-well tissue culture plates at a density of 1 × 10^5 cells/well. […] To determine the amounts of accumulated radiolabeled substrates, cell lysates mixed with a liquid scintillation cocktail were measured with a MicroBeta2 microplate counter (PerkinElmer, Singapore).
Transporter-specific accumulation of the probe substrate was calculated using the following formula: ACCSpec = ACCTRP − ACCMock, where ACCTRP is the accumulation of the probe in transporter-expressing cells and ACCMock is the accumulation of the probe in control cells. Relative transporter-specific accumulation values were calculated as percentages of the control value (with vehicle only).

Like-named read-outs stand apart in the source and are kept apart here. A value given as a limit tells only on which side of the number the result lay.

Take `CC(C)(C)[C@H](NC(=O)C(F)(F)F)C(=O)N1C[C@H]2[C@@H]([C@H]1C(=O)N[C@H](C#N)C[C@@H]1CCNC1=O)C2(C)C` [Nirmatrelvir]: on OATP2B1 (at 20 μM), the “inhibition of OATP2B1 by Nirmatrelvir alone” value is recorded as “only a minor inhibitory effect”. For the same molecule, the “inhibition of OATP1B1 by Nirmatrelvir alone” value against OATP1B1 (at 20 μM) is reported as “only a minor inhibitory effect”.
As usually defined, the inhibition is the drop in the measured response relative to a control, in per cent. One may read the IC50 as the concentration needed to halve the response being measured. As to `CC(C)C(=O)OC[C@H]1O[C@@H](n2ccc(NO)nc2=O)[C@H](O)[C@@H]1O` [EIDD-2801, Molnupiravir], the inhibition at 10 min, 200 µM lay within 20 to 40% on OATP2B1 (human, A431 cells overexpressing OATP2B1, pH 5.5, probe pyranine (20 μM), at 200 μM, pyranine, read-out: maximum inhibition of OATP2B1) and 20 to 40% on OATP1B1 (human, A431 cells overexpressing OATP1B1, pH 7.4, probe pyranine (20 μM)). The half-inhibitory concentration (IC50) on OATP2B1 and at OATP1B1 was more than 200 µM throughout. Further, on ENT1 (read-out: ENT1-mediated uridine transport, inhibited to % of the full activity), the ENT1 uridine transport remaining, % of full activity at 200 µM is approximately 50%.
On to `O=c1nc(NO)ccn1[C@@H]1O[C@H](CO)[C@@H](O)[C@H]1O` [EIDD-1931], for which the “maximum inhibition of OATP2B1” value at OATP2B1 (at 200 μM, pyranine) was 20–40%. In addition, the IC50 at OATP2B1 was more than 200 µM; at OATP1B1 (read-out: estimated IC50, OATP1B1, pyranine substrate, A431 cells), more than 200 µM. The “ENT1-mediated uridine transport, inhibited to % of the full activity” value on ENT1 (at 200 μM) was “about 50%”. In addition, at OATP1B1 (at 200 μM, pyranine), the “maximum inhibition of OATP1B1” value is 20–40%.
